Source: US4898855A, “Deuterated analogs of 1,25-dihydroxycholecalciferol” (Hoffman-La Roche Inc., priority 1987, dated 1990)
Like-named read-outs stand apart in the source and are kept apart here.

Legend:
[1] = system: embryonic chick pelvic cartilage; assay: Stimulation of avian cartilage growth in vitro (organ culture of embryonic chick pelvic cartilage); details: for Avian cartilage in vitro, % increase, dry weight: 3-day incubation
vitamin D deficient rats = format: in vivo, rat; details: for Bone Mass: histomorphometric
Procedure: Rats were placed on the following protocol. […]
Ten 3 week old rats were maintained on vitamin D3 deficient diet for 6 weeks.
The following parameters in Table III were evaluated, by means which are conventional in the art, after completion the above treatments. Bone mass is measured by known histomorphometric methods.

Bone Ca resorption (BCR) = assay: Bone calcium mobilization in rat (plasma Ca increase); format: in vivo; details: 12.5 ng/rat intrajugularly, 18 hours after injection, vitamin D-deficient low calcium diet
Procedure: Male weanling rats (Holtzman, Madison WI.) were housed individually in overhanging wire cages and were fed a vitamin D-deficient diet containing low calcium (0.005%) and normal phosphorus (0.3%). Test compounds were dissolved in 10-20 μl of ethanol. Plasma (1.8 ml), collected from vitamin D, deficient rats was added to the ethanol solution. The test compounds were given intrajugularly in 0.3 ml of the ethanol-plasma carrier solution. Controls received carrier alone.
Bone Ca resorption (BCR) was estimated by mesuring the blood Ca increase in the treated rats. Blood was collected in heparinized tubes and centrifuged. The resulting plasma was measured for calcium concentration by atomic absorption spectroscopy. Since rats were fed a diet essentially devoid of Ca, plasma Ca increases reflected mobilization of Ca from bone, not intestinal Ca absorption.

[2] = system: porcine growth-plate cartilage; assay: Stimulation of porcine cartilage growth in vitro (organ culture of fetal pig scapula growth-plates); format: cell-based; details: for Porcine cartilage in vitro, % increase, dry weight: 14-17 days incubation
Procedure: Organ cultures of growth-plates from the scapula cartilages of fetal pigs were performed using methods previously described. (Burch WM, Lebovitz HE (1982) "Triiodothyronine stimulates maturation of porcine growth-plate cartilage in vitro." J. Clin. Investig. (70: 496.) Growth-plates (n=12/treatment group) were isolated aseptically, wet weight obtained, and then placed into individuals wells of 24 well-plastic culture plates. Growth-plates were incubated in 1.5 ml of MEM (Joklik-Modified) containing 0.5% BSA for 14-17 days. The medium was changed and fresh additives introduced every 4-5 days. This medium (MEM) was chosen because it contained antibiotics which allowed relatively long-term culture without contamination. BGJb. (Fitton-Jackson modification) medium with addition of antibiotics has also been used with similar results. At the end of the incubation, growth-plates were weighed for wet weight, then air dried for dry weight. The change in growth-plate wet weights were determined and the cartilages were photographed.

[3] = system: intestinal ^45 Ca transport (ICA); assay: Stimulation of intestinal calcium absorption in rat (everted gut sac); format: in vivo; details: 12.5 ng/rat intrajugularly, 18 hours after injection, vitamin D-deficient low calcium diet
[4] = high dose: daily 60 ng 1,25-(OH)2 D3 or 66 ng Hexa ^2 H, 3 weeks, vitamin D3 deficient diet
[5] = low dose: daily 15 ng 1,25-(OH)2 D3 or 16.5 ng Hexa ^2 H, 3 weeks, vitamin D3 deficient diet

Row | Structure (SMILES) | Avian cartilage in vitro, % increase, ^35 S ([1]; 10^-9 M) [%] | Avian cartilage in vitro, % increase, dry weight ([1]; 10^-9 M) [%] | Avian cartilage in vitro, % increase, ^3 H proline ([1]; 10^-10 M) [%] | Avian cartilage in vitro, % increase, ^3 H thymidine ([1]; 10^-10 M) [%] | Avian cartilage in vitro, % increase, ^35 S ([1]; 10^-10 M) [%] | Avian cartilage in vitro, % increase, dry weight ([1]; 10^-10 M) [%] | Avian cartilage in vitro, % increase, ^3 H proline ([1]; 10^-11 M) [%] | Avian cartilage in vitro, % increase, ^35 S ([1]; 10^-11 M) [%] | Avian cartilage in vitro, % increase, dry weight ([1]; 10^-11 M) [%] | Avian cartilage in vitro, % increase, ^3 H proline ([1]; 10^-12 M) [%] | Avian cartilage in vitro, % increase, ^3 H thymidine ([1]; 10^-12 M) [%] | Avian cartilage in vitro, % increase, dry weight ([1]; 10^-12 M) [%] | Body Weight (vitamin D deficient rats; [4]) [gr] | % of 1,25-(OH)2 D3 effect in rat, bone calcium mobilization (Bone Ca resorption (BCR)) [%] | Porcine cartilage in vitro, % increase, ^3 H ([2]; 10^-10 M) [%] | Porcine cartilage in vitro, % increase, ^35 S ([2]; 10^-10 M) [%] | Porcine cartilage in vitro, % increase, dry weight ([2]; 10^-10 M) [%] | Porcine cartilage in vitro, % increase, ^3 H ([2]; 10^-11 M) [%] | Porcine cartilage in vitro, % increase, ^35 S ([2]; 10^-11 M) [%] | Porcine cartilage in vitro, % increase, dry weight ([2]; 10^-11 M) [%] | further results
1 | [2H]C([2H])([2H])C(O)(CCC[C@@H](C)[C@H]1CC[C@H]2/C(=C/C=C3/C[C@@H](O)C[C@H](O)C3=C)CCC[C@]12C)C([2H])([2H])[2H] [1,25-(OH)2 D3 -Hexa^2 H, 26,26,26,27,27,27-hexadeutero-1α,25-dihydroxycholecalciferol] | 41.0 | 35.3 | 145.4 | 44.3 | 30.1 | 29.1 | 131.4 | 26.3 | 29.8 | 65.0 | 62.5 | 31.2 | 163 ± 7.2 | 64 | 215.7 | 466.0 | 57.6 | 123.6 | 203.2 | 40.9 | Avian cartilage in vitro, % increase, ^3 H proline ([1]; 10^-9 M): 148.3%; Avian cartilage in vitro, % increase, ^3 H proline ([1]; 10^-13 M): 36.0%; Avian cartilage in vitro, % increase, ^3 H thymidine ([1]; 10^-13 M): 57.9%; Avian cartilage in vitro, % increase, ^35 S ([1]; 10^-13 M): 21.5%; Avian cartilage in vitro, % increase, dry weight ([1]; 10^-13 M): 20.5%; Serum Ca^2+ (vitamin D deficient rats; [4]): 11.20 ± 0.28 mg/dL; Serum Creatinine (vitamin D deficient rats; [4]): 0.36 ± 0.04 mg/dL; Bone Mass (vitamin D deficient rats; [4]): 371 ± 68 ^mm.spsp.3 /cm^3; Body Weight (vitamin D deficient rats; [5]): 193 ± 5 gr; Serum Ca^2+ (vitamin D deficient rats; [5]): 11.28 ± 0.26 mg/dL; Serum Creatinine (vitamin D deficient rats; [5]): 0.36 ± 0.02 mg/dL; Bone Mass (vitamin D deficient rats; [5]): 288 ± 58 ^mm.spsp.3 /cm^3; activity in increasing bone mass compared with 1,25-(OH)2 D3 (vitamin D deficient rats; summary of Table III): more active than 1,25-(OH)2 D3; activity in inducing hypercalcemia compared with 1,25-(OH)2 D3 (serum Ca^2+) (vitamin D deficient rats; summary of Table III): not as active as 1,25-(OH)2 D3; Porcine cartilage in vitro, % increase, dry weight ([2]; 10^-12 M): 31.5%; Porcine cartilage in vitro, % increase, dry weight ([2]; 10^-13 M): 29.5%; % of 1,25-(OH)2 D3 effect in rat, intestinal calcium absorption [3]: 92%
2 | C=C1/C(=C\C=C2/CCC[C@]3(C)[C@@H]([C@H](C)CCCC(C)(C)O)CC[C@@H]23)C[C@@H](O)C[C@@H]1O [1,25-(OH)2 D3, 1α,25-dihydroxycholecalciferol, reference compound] |  | 31.8 | 122 |  | 21.8 | 27.2 | 68.3 | 13.8 | 24.1 | 46.3 |  | 22.6 | 156 ± 15 | 100 | 0 | 0 | 0 | 0 | 0 | 0 | Avian cartilage in vitro, % increase, ^35 S ([1]; 10^-12 M): 8.6%; Serum Creatinine (vitamin D deficient rats; [4]): 0.35 ± 0.02 mg/dL; Bone Mass (vitamin D deficient rats; [4]): 296 ± 56 ^mm.spsp.3 /cm^3; Body Weight (vitamin D deficient rats; [5]): 192 ± 4.5 gr; Serum Ca^2+ (vitamin D deficient rats; [5]): 11.87 ± 0.16 mg/dL; Serum Creatinine (vitamin D deficient rats; [5]): 0.37 ± 0.04 mg/dL; Bone Mass (vitamin D deficient rats; [5]): 156 ± 16 ^mm.spsp.3 /cm^3; Serum Ca^2+ (vitamin D deficient rats; rat, in vivo): 11.92 ± 0.40 mg/dL; Porcine cartilage in vitro, % increase, ^3 H ([2]; 10^-9 M): 300%; Porcine cartilage in vitro, % increase, ^35 S ([2]; 10^-9 M): 280%; Porcine cartilage in vitro, % increase, dry weight ([2]; 10^-9 M): 49%; % of 1,25-(OH)2 D3 effect in rat, intestinal calcium absorption [3]: 100%
3 | [2H]C([2H])([2H])C(O)(C([2H])([2H])[2H])C([2H])([2H])CC[C@@H](C)[C@H]1CC[C@H]2/C(=C/C=C3/C[C@@H](O)C[C@H](O)C3=C)CCC[C@]12C [1,25-(OH)2 D3 -Octa^2 H, 24,24,26,26,26,27,27,27-octadeutero-1α,25-dihydroxycholecalciferol] | 10.8 | 28.0 |  | 25.0 |  | 21.6 |  |  | 17.0 |  | 15.3 | 10.3 |  | 147 | 75 | 410 | 50 | 20 | 95 | 42 | Avian cartilage in vitro, % increase, ^3 H thymidine ([1]; 10^-11 M): 20.7%; Porcine cartilage in vitro, % increase, ^3 H ([2]; 10^-9 M): 150%; Porcine cartilage in vitro, % increase, ^35 S ([2]; 10^-9 M): 490%; Porcine cartilage in vitro, % increase, dry weight ([2]; 10^-9 M): 60%
